In ChEMBL document CHEMBL5365437, “Cannabinoformins: Designing Biguanide-Embedded, Orally Available, Peripherally Selective Cannabinoid-1 Receptor Antagonists for Metabolic Syndrome Disorders” (J Med Chem, 2023):

Legend:
[1] = biological target: T1, Cannabinoid receptor 1 (Mus musculus, UniProt P47746); assay: Displacement of [3H][…] from CB1 receptor in mouse brain plasma membrane by radioligand displacement analysis; format: cell membranes
[2] = biological target: T2, AMP-activated protein kinase (AMPK) alpha-1/beta-1/gamma-1 (Homo sapiens) (UniProt P54619+Q9Y478+Q13131); assay: Activation of recombinant AMPK alpha1/beta1/gamma1 (unknown origin) at 1 uM relative to control; format: protein-complex assay; conditions: filed as activator
[3] = biological target: T1, Cannabinoid receptor 1; assay: Antagonist activity at CB1 receptor in mouse brain membrane assessed as inhibition of […]-induced GTPgammaS binding by [35S]GTPgammaS binding analysis; format: functional, cell membranes
[4] = biological target: T2, AMP-activated protein kinase (AMPK) alpha-1/beta-1/gamma-1 (Homo sapiens); assay: Activation of recombinant AMPK alpha1/beta1/gamma1 (unknown origin) at 10 uM relative to control; format: protein-complex assay; conditions: filed as activator

T1 sequence (P47746 whole entry): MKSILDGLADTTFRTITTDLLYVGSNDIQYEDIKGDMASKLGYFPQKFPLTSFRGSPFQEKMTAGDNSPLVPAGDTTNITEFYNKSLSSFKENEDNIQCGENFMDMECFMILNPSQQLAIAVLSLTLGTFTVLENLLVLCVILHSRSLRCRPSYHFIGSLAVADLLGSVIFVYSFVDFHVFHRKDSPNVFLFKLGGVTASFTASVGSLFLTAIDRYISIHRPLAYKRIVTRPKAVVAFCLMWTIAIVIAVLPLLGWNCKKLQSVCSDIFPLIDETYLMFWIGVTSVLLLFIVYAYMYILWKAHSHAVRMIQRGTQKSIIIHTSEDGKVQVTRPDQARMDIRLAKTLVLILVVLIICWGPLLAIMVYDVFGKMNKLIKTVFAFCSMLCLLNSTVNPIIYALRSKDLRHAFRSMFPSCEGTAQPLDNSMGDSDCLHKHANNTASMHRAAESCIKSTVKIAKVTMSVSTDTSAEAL
T2 sequence (P54619 whole entry): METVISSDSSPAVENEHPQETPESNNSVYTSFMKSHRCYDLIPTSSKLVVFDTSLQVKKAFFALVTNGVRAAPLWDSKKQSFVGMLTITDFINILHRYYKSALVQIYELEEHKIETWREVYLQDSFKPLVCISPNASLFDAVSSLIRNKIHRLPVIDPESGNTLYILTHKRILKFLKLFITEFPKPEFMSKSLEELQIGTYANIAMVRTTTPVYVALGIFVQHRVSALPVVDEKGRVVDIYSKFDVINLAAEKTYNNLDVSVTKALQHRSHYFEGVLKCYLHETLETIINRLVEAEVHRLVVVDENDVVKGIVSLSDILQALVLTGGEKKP
T2 sequence (Q13131 whole entry partner): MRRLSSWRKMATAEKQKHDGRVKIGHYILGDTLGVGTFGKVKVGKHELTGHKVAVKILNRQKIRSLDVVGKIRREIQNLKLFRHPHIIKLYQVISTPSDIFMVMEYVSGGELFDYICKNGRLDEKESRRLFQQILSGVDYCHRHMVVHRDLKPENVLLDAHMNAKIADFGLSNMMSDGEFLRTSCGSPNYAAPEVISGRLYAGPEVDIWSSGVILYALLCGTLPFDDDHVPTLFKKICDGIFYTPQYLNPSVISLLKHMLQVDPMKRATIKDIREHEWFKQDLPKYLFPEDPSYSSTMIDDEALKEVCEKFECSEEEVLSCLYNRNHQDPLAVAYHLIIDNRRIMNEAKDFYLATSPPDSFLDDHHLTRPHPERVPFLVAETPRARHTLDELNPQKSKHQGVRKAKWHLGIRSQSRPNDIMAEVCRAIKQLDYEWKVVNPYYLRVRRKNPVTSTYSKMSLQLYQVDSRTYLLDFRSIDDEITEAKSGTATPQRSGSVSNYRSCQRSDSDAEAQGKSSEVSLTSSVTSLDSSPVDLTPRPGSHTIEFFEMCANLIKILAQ
T2 sequence (Q9Y478 2-270 partner limits assumed): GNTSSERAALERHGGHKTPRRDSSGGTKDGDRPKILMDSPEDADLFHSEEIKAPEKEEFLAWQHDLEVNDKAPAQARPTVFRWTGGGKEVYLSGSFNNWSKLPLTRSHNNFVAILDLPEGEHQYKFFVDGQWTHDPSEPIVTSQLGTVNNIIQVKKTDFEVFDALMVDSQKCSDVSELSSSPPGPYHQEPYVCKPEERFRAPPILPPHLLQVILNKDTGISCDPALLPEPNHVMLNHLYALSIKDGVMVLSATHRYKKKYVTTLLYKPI

Which Ki [1] does the source give for `NC(N)=N/C(=N/S(=O)(=O)c1ccc(Cl)cc1)N1CC(c2ccccc2)C(c2ccc(Cl)cc2)=N1` (stereo not drawn) here?
Its Ki is 415 nM.

How did the Activity [2] turn out when `Cc1ccc(S(=O)(=O)/N=C(/N=C(\N)NC(=O)c2ccccc2)N2CC(c3ccccc3)C(c3ccc(Cl)cc3)=N2)cc1` (stereo not drawn) was run?
Its Activity is 102%.

What about the IC50 [3] of the same compound?
The IC50 was 59 nM.

And the Ki [1]?
Its Ki is 25 nM.

`CN/C(N)=N/C(=N/S(=O)(=O)c1ccc(Cl)cc1)N1CC(c2ccccc2)C(c2ccc(Cl)cc2)=N1` (stereo not drawn) was tested. Which Activity [4] did it give?
Its Activity is 139%.

`CC(C)N/C(N)=N/C(=N/S(=O)(=O)c1ccc(Cl)cc1)N1CC(c2ccccc2)C(c2ccc(Cl)cc2)=N1` (stereo not drawn) was tested. Which Activity [4] did it give?
Its Activity is 145%.

For `CCN(CC)S(=O)(=O)/N=C(/N=C(\N)NC(C)=O)N1CC(c2ccccc2)C(c2ccc(Cl)cc2)=N1` (stereo not drawn), which Activity [2] is on record?
Its Activity is 152%.

And the IC50 [3]?
The IC50 was 2.1 nM.

And the Ki [1]?
The Ki was 1.3 nM.

Which results are given for `CC(=O)N/C(N)=N/C(=N/S(=O)(=O)c1ccc(F)cc1)N1CC(c2ccccc2)C(c2ccc(Cl)cc2)=N1` (stereo not drawn)?
Activity [2]: 95%; IC50 [3]: 10 nM; Ki [1]: 2.3 nM

Which Activity [2] does the source give for `CC(=O)N/C(N)=N/C(=N/S(=O)(=O)c1ccc(C#N)cc1)N1CC(c2ccccc2)C(c2ccc(Cl)cc2)=N1` (stereo not drawn) here?
Its Activity is 91%.

And the IC50 [3]?
The IC50 was 5.8 nM.

What about the Ki [1] of the same compound?
The Ki was 0.4 nM.

With `N/C(=N\C(=N\S(=O)(=O)c1ccc(Cl)cc1)N1CC(c2ccccc2)C(c2ccc(Cl)cc2)=N1)NCc1ccccc1` (stereo not drawn) as the compound, how does the Activity [4] read?
Its Activity is 149%.

With `N/C(=N\C(=N\S(=O)(=O)c1ccc(Cl)cc1)N1CC(c2ccccc2)C(c2ccc(Cl)cc2)=N1)NCCc1ccccc1` (stereo not drawn) as the compound, how does the Activity [4] read?
Its Activity is 136%.

How did the Ki [1] turn out when `CN=C(NS(=O)(=O)c1ccc(Cl)cc1)N1C[C@H](c2ccccc2)C(c2ccc(Cl)cc2)=N1` [IBIPINABANT] was run?
Its Ki is 8.1 nM.

For `CC(=O)N/C(N)=N/C(=N/S(=O)(=O)c1ccc(I)cc1)N1CC(c2ccccc2)C(c2ccc(Cl)cc2)=N1` (stereo not drawn), which Activity [2] is on record?
The Activity was 121%.

And the IC50 [3]?
Its IC50 is 2.8 nM.

What about the Ki [1] of the same compound?
Its Ki is 3.2 nM.

With `N/C(=N\C(=N\S(=O)(=O)c1ccc(Cl)cc1)N1CC(c2ccccc2)C(c2ccc(Cl)cc2)=N1)NCC12C[C@H]3C[C@@H](C1)C[C@@H](C2)C3` (stereo partly drawn) as the compound, how does the Ki [1] read?
The Ki was greater than 1000 nM.

`CC(=O)N/C(N)=N/C(=N/S(=O)(=O)c1ccc2ccccc2c1)N1C[C@@H](c2ccccc2)C(c2ccc(Cl)cc2)=N1` was tested. Which Ki [1] did it give?
The Ki was 78 nM.

How did the Activity [4] turn out when `COCCN/C(N)=N/C(=N/S(=O)(=O)c1ccc(Cl)cc1)N1CC(c2ccccc2)C(c2ccc(Cl)cc2)=N1` (stereo not drawn) was run?
The Activity was 156%.

Which results are given for `CC(=O)N/C(N)=N/C(=N/S(=O)(=O)N1CCOCC1)N1CC(c2ccccc2)C(c2ccc(Cl)cc2)=N1` (stereo not drawn)?
Activity [2]: 162%; IC50 [3]: 2 nM; Ki [1]: 2.3 nM

What does the source list for `CC(=O)N/C(N)=N/C(=N/S(=O)(=O)c1ccc(Cl)cc1)N1CC(c2ccccc2)C(c2ccc(Cl)cc2)=N1` (stereo not drawn)?
Activity [2]: 142%; IC50 [3]: 3.1 nM; Ki [1]: 2.9 nM

How did the Activity [2] turn out when `CC(=O)N/C(N)=N/C(=N/S(=O)(=O)c1ccc(C(C)(C)C)cc1)N1CC(c2ccccc2)C(c2ccc(Cl)cc2)=N1` (stereo not drawn) was run?
The Activity was 118%.

What about the IC50 [3] of the same compound?
The IC50 was 1.4 nM.

With `CN1CCN(/C(N)=N/C(=N/S(=O)(=O)c2ccc(Cl)cc2)N2CC(c3ccccc3)C(c3ccc(Cl)cc3)=N2)CC1` (stereo not drawn) as the compound, how does the Activity [4] read?
Its Activity is 182%.

For `CC(=O)N/C(N)=N/C(=N/S(=O)(=O)c1ccc(C(C)C)cc1)N1CC(c2ccccc2)C(c2ccc(Cl)cc2)=N1` (stereo not drawn), which Activity [2] is on record?
Its Activity is 119%.

What about the IC50 [3] of the same compound?
The IC50 was 1.7 nM.

And the Ki [1]?
The Ki was 3.7 nM.

With `CCCCN(CC)/C(N)=N/C(=N/S(=O)(=O)c1ccc(Cl)cc1)N1CC(c2ccccc2)C(c2ccc(Cl)cc2)=N1` (stereo not drawn) as the compound, how does the Activity [4] read?
Its Activity is 172%.

With `CC(=O)N/C(N)=N/C(=N/S(=O)(=O)N1CCC(C(F)(F)F)CC1)N1C[C@@H](c2ccccc2)C(c2ccc(Cl)cc2)=N1` as the compound, how does the Ki [1] read?
Its Ki is 37 nM.

What about the Activity [4] of the same compound?
Its Activity is 114%.

`N/C(=N\C(=N\S(=O)(=O)c1ccc(Cl)cc1)N1CC(c2ccccc2)C(c2ccc(Cl)cc2)=N1)NC12C[C@H]3C[C@@H](C1)C[C@@H](C2)C3` (stereo partly drawn) was tested. Which Ki [1] did it give?
The Ki was greater than 1000 nM.

What does the source list for `N/C(=N\C(=N\S(=O)(=O)c1ccc(OC(F)(F)F)cc1)N1CC(c2ccccc2)C(c2ccc(Cl)cc2)=N1)NC(=O)c1ccccc1` (stereo not drawn)?
Activity [2]: 104%; IC50 [3]: 86 nM; Ki [1]: 13 nM

With `N/C(=N\C(=N\S(=O)(=O)c1ccc(Cl)cc1)N1CC(c2ccccc2)C(c2ccc(Cl)cc2)=N1)N1CCCCC1` (stereo not drawn) as the compound, how does the Activity [4] read?
The Activity was 166%.

With `N/C(=N\C(=N\S(=O)(=O)c1ccc(Cl)cc1)N1CC(c2ccccc2)C(c2ccc(Cl)cc2)=N1)N1CCCC1` (stereo not drawn) as the compound, how does the Activity [4] read?
The Activity was 135%.

How did the Activity [4] turn out when `N/C(=N\C(=N\S(=O)(=O)c1ccc(Cl)cc1)N1CC(c2ccccc2)C(c2ccc(Cl)cc2)=N1)N1CCOCC1` (stereo not drawn) was run?
Its Activity is 127%.

How did the Activity [2] turn out when `COc1ccc(S(=O)(=O)/N=C(/N=C(\N)NC(=O)c2ccccc2)N2CC(c3ccccc3)C(c3ccc(Cl)cc3)=N2)cc1` (stereo not drawn) was run?
The Activity was 98%.

And the IC50 [3]?
Its IC50 is 68 nM.

What about the Ki [1] of the same compound?
The Ki was 8.5 nM.

`COc1ccc(S(=O)(=O)/N=C(/N=C(\N)NC(C)=O)N2CC(c3ccccc3)C(c3ccc(Cl)cc3)=N2)cc1` (stereo not drawn) was tested. Which Activity [2] did it give?
The Activity was 98%.

And the IC50 [3]?
Its IC50 is 16 nM.

What about the Ki [1] of the same compound?
The Ki was 13 nM.

`N/C(=N\C(=N\S(=O)(=O)c1ccc(C(F)(F)F)cc1)N1CC(c2ccccc2)C(c2ccc(Cl)cc2)=N1)NC(=O)c1ccccc1` (stereo not drawn) was tested. Which Activity [2] did it give?
Its Activity is 101%.

And the IC50 [3]?
Its IC50 is 6.1 nM.

And the Ki [1]?
Its Ki is 3 nM.

With `CC(=O)N/C(N)=N/C(=N/S(=O)(=O)c1ccc(OC(F)(F)F)cc1)N1CC(c2ccccc2)C(c2ccc(Cl)cc2)=N1` (stereo not drawn) as the compound, how does the Activity [2] read?
Its Activity is 125%.

And the IC50 [3]?
Its IC50 is 3.2 nM.

Which Activity [2] does the source give for `CC(=O)N/C(N)=N/C(=N/S(=O)(=O)c1ccc(C)cc1)N1CC(c2ccccc2)C(c2ccc(Cl)cc2)=N1` (stereo not drawn) here?
The Activity was 96%.

What about the IC50 [3] of the same compound?
The IC50 was 19 nM.

And the Ki [1]?
Its Ki is 8.6 nM.

`COCCN(CCOC)/C(N)=N/C(=N/S(=O)(=O)c1ccc(Cl)cc1)N1CC(c2ccccc2)C(c2ccc(Cl)cc2)=N1` (stereo not drawn) was tested. Which Activity [4] did it give?
Its Activity is 155%.

How did the Activity [2] turn out when `N/C(=N\C(=N\S(=O)(=O)c1ccc(Cl)cc1)N1CC(c2ccccc2)C(c2ccc(Cl)cc2)=N1)NC(=O)c1ccccc1` (stereo not drawn) was run?
Its Activity is 100%.

What about the IC50 [3] of the same compound?
Its IC50 is 25 nM.

What about the Ki [1] of the same compound?
Its Ki is 0.8 nM.

What does the source list for `CC(=O)N/C(N)=N/C(=N/S(=O)(=O)c1ccccc1)N1CC(c2ccccc2)C(c2ccc(Cl)cc2)=N1` (stereo not drawn)?
Activity [2]: 93%; IC50 [3]: 21 nM; Ki [1]: 6.8 nM

For `N/C(=N\C(=N\S(=O)(=O)c1ccc2ccccc2c1)N1CC(c2ccccc2)C(c2ccc(Cl)cc2)=N1)NC(=O)c1ccccc1` (stereo not drawn), which Activity [2] is on record?
The Activity was 90%.

What about the IC50 [3] of the same compound?
Its IC50 is 66 nM.

What about the Ki [1] of the same compound?
Its Ki is 8.1 nM.

`CCC(=O)N/C(N)=N/C(=N/S(=O)(=O)c1ccc(Cl)cc1)N1CC(c2ccccc2)C(c2ccc(Cl)cc2)=N1` (stereo not drawn) was tested. Which Activity [2] did it give?
The Activity was 91%.

And the IC50 [3]?
The IC50 was 6 nM.

What about the Ki [1] of the same compound?
The Ki was 2.8 nM.

`CCC(=O)N/C(N)=N/C(=N/S(=O)(=O)c1ccc(C(F)(F)F)cc1)N1CC(c2ccccc2)C(c2ccc(Cl)cc2)=N1` (stereo not drawn) was tested. Which Activity [2] did it give?
Its Activity is 96%.

And the IC50 [3]?
The IC50 was 5.5 nM.

And the Ki [1]?
Its Ki is 3.3 nM.

Which Activity [2] does the source give for `N/C(=N\C(=N\S(=O)(=O)c1ccc(I)cc1)N1CC(c2ccccc2)C(c2ccc(Cl)cc2)=N1)NC(=O)c1ccccc1` (stereo not drawn) here?
The Activity was 96%.

What about the IC50 [3] of the same compound?
Its IC50 is 14 nM.

And the Ki [1]?
Its Ki is 5.5 nM.

How did the Activity [2] turn out when `CC(=O)N/C(N)=N/C(=N/S(=O)(=O)c1ccc(Br)cc1)N1CC(c2ccccc2)C(c2ccc(Cl)cc2)=N1` (stereo not drawn) was run?
Its Activity is 94%.

And the IC50 [3]?
Its IC50 is 4.9 nM.

What about the Ki [1] of the same compound?
The Ki was 0.6 nM.

Which results are given for `CC(=O)N/C(N)=N/C(=N/S(=O)(=O)c1ccc2ccccc2c1)N1CC(c2ccccc2)C(c2ccc(Cl)cc2)=N1` (stereo not drawn)?
Activity [2]: 117%; IC50 [3]: 6.1 nM; Ki [1]: 16 nM

With `CN/C(=N\S(=O)(=O)c1ccc(Cl)cc1)N1C[C@H](c2ccccc2)C(c2ccc(Cl)cc2)=N1` as the compound, how does the Activity [4] read?
The Activity was 100%.

How did the Activity [4] turn out when `C=CCN(CC=C)/C(N)=N/C(=N/S(=O)(=O)c1ccc(Cl)cc1)N1CC(c2ccccc2)C(c2ccc(Cl)cc2)=N1` (stereo not drawn) was run?
The Activity was 157%.

For `CN(Cc1ccccc1)/C(N)=N/C(=N/S(=O)(=O)c1ccc(Cl)cc1)N1CC(c2ccccc2)C(c2ccc(Cl)cc2)=N1` (stereo not drawn), which Activity [4] is on record?
The Activity was 153%.
